Laboratory results taken from patent publication US20160199445A1, “USE OF ARPIN A NEW INHIBITOR OF THE ARP2/3 COMPLEX FOR THE DIAGNOSIS AND TREATMENT OF DISEASES” (CENTRE NATIONAL DE LA RECHERCHE SCIENTIFIQUE, priority 2013, published 2016).
Values belong to the substance of their own block, whether it stands above or below them.

Legend:
[1] = tested on: Arp2/3 complex; test: Competition pulldown: HeLa cell extract and GST N-WASP VCA immobilized on glutathione beads; type: binding; settings: 5 μM GST N-WASP VCA; Arpin/ArpinΔA 18 μM, ArpinA 304 μM and serial 2-fold dilutions
Description: (§1) FIG. 1: Arpin inhibits Arp2/3 activation in vitro. a, Alignment of acidic C-termini of 3 NPFs and of Arpin. […] Pulldown was performed with HeLa cell extract and GST fusions of Arpin full length (FL), Arpin deleted of its last 16 amino-acids (ΔA), the last 16 amino-acids (A) or the VCA domain of N-WASP as a positive control. Arp2/3 binding was assessed by western blot against the ArpC2 subunit. c, Spectrofluorimetry assay to monitor actin polymerisation.
(§2) Arp2/3 is displaced from its interaction with 5 μM GST N-WASP VCA immobilized on glutathione beads by the Arpin Acidic peptide (304 μM and serial 2-fold dilutions).
(§3) 6. GST Pull Down, Immunoprecipitations, SDS-PAGE and Western Blots HeLa cells were lysed in 50 mM Tris-HCl, 150 mM NaCl, 1 mM EDTA, 1 mM DTT, 0.5% Triton-X100, 5% glycerol, pH 7.5. 20 μg of GST fusion protein associated with 20 μl of glutathione sepharose 4B beads (GE […]) were incubated with 1 ml of HeLa cell extracts for 2 h at 4° C. Beads were washed and analysed by western blot.

[2] = molecular target: Arp2/3 complex; test: Fluorescence anisotropy based determination of Kd (labelled ArpinA peptide, purified Arp2/3 complex); type: binding; settings: for displacement of labelled ArpinA peptide bound to the Arp2/3 complex: titration of labelled ArpinA peptide/Arp2/3 complex with purified protein
Description: FIG. 5: Arpin directly binds to the Arp2/3 complex with a dissociation constant of 200 nM. a, Fluorescence anisotropy measurements of labelled ArpinA peptide binding at equilibrium to the purified Arp2/3 complex at the indicated concentrations. b, Labelled ArpinA peptide bound to the Arp2/3 complex was then titrated with purified Arpin FL, ArpinΔA or unlabelled ArpinA peptide as indicated. […] Curves that best fit the values yield the indicated equilibrium constants.
The ArpinA peptide was synthesized and labelled with 5-TAMRA at the N-terminus (PROTEOGENIX). The peptide was excited with polarised light at 549 nm and emitted light was detected at 573 nm using a MOS450 fluorimeter (BIOLOGIC). Measurements were made for 60 s at 1 point/s and the average anisotropy was calculated with the Biologic software. Fits were performed as described in reference 40.

[3] = tested on: trout keratocytes; test: Microinjection of purified protein into migrating fish keratocytes; type: cell-based, brook trout (Salvelinus fontinalis); settings: injected fish keratocytes; for turning (direction autocorrelation): n≧8, P<0.05 between 16 and 272 s
Text: FIG. 24: Arpin microinjection induces fish keratocyte to turn. a, Trout keratocytes were micro-injected with purified full length Arpin, ArpinΔA or buffer as control. Upon micro-injection of Arpin, lamellipodia were modified and the cells turned. Scale bar, 20 μm. b, Quantifications of the indicated parameters. Mean±sem; n≧8, * P<0.05, *** P<0.001, ANOVA. c, Kymograph of the Arpin microinjected keratocyte. The leading edge undergoes cycles of protrusions and retractions. d, Model. Directional persistence of migration in this cell system requires a positive feedback loop. Branched actin is sensed and activates Rac as a response. In this context, WAVE closes a positive feedback loop. In contrast, Arpin closes a negative feedback loop. These two nested positive and negative feedback loops can account for the oscillatory behavior of the leading edge observed upon Arpin micro-injection.
FIG. 25: Procedures to quantify fish keratocyte migration. a, Kymograph analysis. Lamellipodial dynamics were studied along a one-pixel-wide line oriented in the direction of protrusions, using the MultiKymograph plug-in in ImageJ. Protrusion velocity was the average of all protrusion slopes at the front of the cell. Projections along the distance axis and the time axis, gave, respectively, length and duration of the protrusion. Cell speed was determined using the slope of the dashed line indicating the rear of the cell. b, Outline analysis. Cell contours were defined using CellTrack software (http://db.cse.ohio-state.edu/CellTrack) and manually adjusted when necessary. The cell from frame t is overlayed with the same cell in frame t+100 s, using their center of mass as a reference. The non-overlapping areas are summed up to give the cell deformation between these two frames. […]
Keratocytes were isolated from scales of freshly killed brook trout (Salvelinus fontinalis) as previously described^41 and imaged by phase contrast on an inverted Zeiss Axioscope using ×63 optics, and a halogen lamp as light source. […] Contours were analysed using the CellTrack software (OHIO STATE UNIVERSITY). […]

[4] = tested on: Arp2/3 complex; test: Pyrene-actin polymerisation assay (spectrofluorimetry); type: biochemical; settings: for inhibition of VCA-activated Arp2/3 actin polymerisation: 2 μM actin (10% pyrene-labelled), 500 nM VCA, 20 nM Arp2/3
Description: as §1
Conditions: 2 μM Actin (10% pyrene-labelled), 20 nM Arp2/3, 500 nM Scar VCA, 5 μM Arpin.
FIG. 8: Determination of apparent Kd from Arpin inhibition of Arp2/3 nucleation. a, Arpin inhibits Arp2/3 activation in the pyrene-actin assay.
as §2
(§4) Pyrene actin assays and monitoring of the branching reaction were performed as described in reference 38 with the conditions described in figure legends. VCA refers to the VCA domain of WAVE1 purified as described^39.

[5] = tested on: Arp2/3 complex; test: GST fusion pulldown of Arp2/3 from HeLa cell extract (western blot against ArpC2); type: binding; settings: GST fusions
Description: as §1, §3

[6] = tested on: Arp2/3 complex; test: Assembly of branched actin networks monitored by TIRF microscopy; type: biochemical; settings: 1 μM actin, 150 nM VCA, 80 nM Arp2/3, Arpin at 5 μM; 5, 10, 15 and 20 min
Description: as §1
FIG. 10: Quantification of Arpin inhibition on the generation of branched actin networks. Conditions as in FIG. 1d. Images were extracted from the TIRF movies, 5, 10, 15 and 20 min after initiation of the reaction. The number of branches and filaments were counted and the ratio determined.
as §4

[7] = tested on: MDA-MB-231 cells; test: Electroporation of MDA-MB-231 cells with purified Arpin; analysis of cell migration; type: cell-based, human
Text: FIG. 27: Electroporation of MDA-MB-231 cells with purified Arpin; analysis of cell migration.
Purified recombinant Arpin can be introduced efficiently into various cell types by electroporation as shown in FIG. 26 with retinal pigment epithelial (RPE-I) cells, mouse embryonic fibroblasts (MEFs) and breast invasive human cell line MDA-MB-231. MDA-MB-231 cells depleted of Arpin migrates faster and more directionally than their respective non-targeting controls (shCtrl).

[8] = tested on: prechordal plate cells; test: Prechordal plate cell migration and protrusions in morpholino-injected zebrafish embryos; type: in vivo
Text: FIG. 17: Arpin regulates protrusion frequency of prechordal plate cells and their collective migration in zebrafish embryos. a, In situ hybridisation of arpin probe in zebrafish embryos at different stages. arpin mRNAs are maternally deposited. During gastrulation, arpin is expressed in hypoblast, which includes the prechordal plate. b, 3D trajectories of prechordal plate cells in embryos injected with control or arpin morpholino. During fish gastrulation, prechordal plate cells migrate collectively in a straight direction from the margin of the embryo towards the animal pole^32,33. […] Lateral displacement is the cell movement perpendicular to main direction of the migration. Distance between cells refers to the average distance of the nucleus of a given cell to the nuclei of its 5 closest neighbors. Mean±sem; n≧1469; *** P<0.001, t-test. c, At the onset of gastrulation prechordal plate cells derived from morpholino injected embryos were transplanted into the prechordal plate of an untreated host embryo at the same stage in order to allow imaging of cell autonomous effects on protrusion formation. Donor embryos are injected with control or arpin morpholinos and mRNAs encoding Lifeact-mCherry as well as GFP-Arpin for the rescue. Time lapse imaging of injected cells is performed by epifluorescence to reveal Lifeact a marker of filamentous actin, which stains actin-based protrusions. […]

- Kd ([2]; fluorescence anisotropy, purified Arp2/3 complex, read-out: dissociation constant for binding to the Arp2/3 complex): 200 nM
- Kd ([4]; in a mixture including actin and the VCA, best fit of number of actin barbed ends, read-out: apparent Kd for the Arp2/3 complex from inhibition of Arp2/3 nucleation): 760 ± 156 nM
Substance: Arpin: protein of SEQ ID NO: 1, product of human C15orf38 gene (residues 1-226); new inhibitor of the Arp2/3 complex
- competition with the NPF (VCA) for Arp2/3 binding [1]: Arp2/3 is displaced from its interaction with the VCA
- displacement of labelled ArpinA peptide bound to the Arp2/3 complex [2]: displaces the labelled ArpinA peptide more efficiently than the A peptide
- territory explored (Mean Square Displacement) ([3]; n≧8, P<0.001): explore a smaller territory than the controls
- turning (direction autocorrelation) [3]: turn more than wild type
- effect on spontaneous actin nucleation and activation of the Arp2/3 complex ([4]; 2 μM Actin (10% pyrene-labelled), 20 nM Arp2/3, 500 nM Scar VCA, 5 μM Arpin): does not affect spontaneous actin nucleation and does not activate the Arp2/3 complex
- inhibition of VCA-activated Arp2/3 actin polymerisation [4]: inhibited actin polymerisation in a dose-dependent manner
- Arp2/3 binding in pulldown [5]: binds to the Arp2/3 complex through its acidic C-terminal region
- frequency of branches in actin networks (ratio branches/filaments) [6]: decreases the frequency of branches in actin networks
- speed and persistence of migration ([7]; Arpin-depleted MDA-MB-231 cells electroporated with purified Arpin): speed and persistence decreased
- idling (active movement) ([7]; MDA-MB-231 cells electroporated with Arpin protein): more idling (less active movement)

Substance: ArpinA: ArpinA peptide, residues 211-226 of full length Arpin (last 16 amino-acids, EIREQGDGAEDEEWDD)
- competition with the NPF (VCA) for Arp2/3 binding [1]: competes with the NPF for Arp2/3 binding
- inhibition of VCA-activated Arp2/3 actin polymerisation [4]: inhibits Arp2/3 activation in a dose dependent manner
- inhibition of VCA-activated Arp2/3 actin polymerisation ([4]; listed as Acidic peptide): sufficient for this inhibition, although it was less effective than full length Arpin

- displacement of labelled ArpinA peptide bound to the Arp2/3 complex [2]: unable to displace the ArpinA peptide
Substance: ArpinΔA: Arpin deleted of its last 16 amino-acids (residues 1-210); human or zebrafish recombinant
- competition with the NPF (VCA) for Arp2/3 binding [1]: not
- turning (direction autocorrelation) [3]: turn more than wild type but less than wild type Arpin injected keratocytes
- inhibition of VCA-activated Arp2/3 actin polymerisation [4]: not

Substance: GTTGTCATAAATACGACTCATCTTC (all phosphorodiamidate morpholino (PMO)) [arpin morpholino]
- dispersion of prechordal plate cells (lateral displacement, distance between cells) ([8]; embryos injected with control or arpin morpholino, n≧1469, P<0.001): induces dispersion as evidenced by increased lateral cell displacement and a higher distance between cells
- probability of presence of protrusions and their duration ([8]; transplanted prechordal plate cells from morpholino injected embryos, P<0.05): increases the probability of presence of protrusions
